Measured values as given in patent publication US11534412B2, “Application of totarol and pharmaceutical composition containing totarol” (Emergopharm SP. Z O.O. SP.K., priority 2017, dated 2022).

Tested on: Lactobacillus plantarum - clinical strain
Test: Determination of the MIC value of totarol, broth dilution in 96-well plates with OD and quantitative culture
Assay type: cell-based
Details: for OD, average of 3 measurements / OD: 620 nm
Protocol: Test of antibacterial activity of totarol using DMI (dimethylisosorbide) as a solvent.
A suspension of 0.5 McF in physiological saline (suspension density 10^8 cfu/ml) was prepared from a 24-hour culture of a standard strain. 1 ml of the suspension was collected to 9 ml of a TSB broth ([…]). Suspensions with a dilution of 10^−6 were prepared in the described way. A suspension with a cell density of 10^5 cfu/ml was selected for further investigations. For each strain, 2 96-well plates were prepared: the first one was intended for the OD measurement, the second one—for quantitative culture on solid media. • A/ to wells B1-D1, B2-D2 and B-D 4-11, 100 µl of the broth were added; • B/ to wells B3-D3, 200 µl of the broth were added; • C/ to wells B1-D1, 1 µl of stock I was added; • D/ to wells B2-D2, 1 µl of stock II was added; • E/ to wells B3-D3, 2 µl of stock III were added. Using a multichannel pipette, 100 µl of the sample were collected from each of the B3-D3 wells and placed in wells B4-D4 (mixing by sucking the content in and letting it out for 5 times). The pipette tips were replaced and 100 µl of the content were collected from of the B4-D4 wells, and placed in wells B5-D5, mixing as previously. These operations were repeated through the wells B11-D11. The content in the B11-D11 wells was mixed, and 100 µl of the fluid were collected and discarded. This way, a series of dilutions of totarol samples in DMI in the range of 0.32% to 0.0004% was obtained. Then, 100 µl of a corresponding bacterial culture were added to the wells B, C, D 1-11. In consequence, a change in the final concentration range occurred, to 0.16%-0.0002%. Control Preparation: • Negative control: 100 µl of the broth+1 pl DMI were added to the Al well. • Positive control (I): 100 µl of the broth with the bacterial culture were added to the wells E1-G1. • Diluent positive control (II): 100 µl of the broth with the bacterial culture+1 pl DMI were added to the wells E2-G2. The OD value in the individual wells was read at the wavelength of 620 nm (read time 0). From the second 96-well plate, a culture was inoculated by a quantitative method from every dilution onto a well with a proper solid medium, and incubated for 24 h at 37° C. under aerobic or anaerobic conditions, depending on the strain. The plates were incubated under aerobic conditions or in an atmosphere of an elevated CO2 concentration (for the strains requiring it) in an incubator at 37° C. The OD was read after 8 h, 16 h, and 24 h, respectively. Before every OD measurement, the contents of the wells were mixed delicately. In parallel to the OD readout, cultures we inoculated from the second 96-well plate, from every dilution, into plates with a proper solid medium, and incubated for 24 h at 37° C., under aerobic or anaerobic conditions. For the analysis of the experimental results, an average value of the OD measurement obtained from three repetitions in the individual times (0, 8, 16, and 24 h) for the individual microbes (Gardnerella vaginalis, Streptococcus agalactiae, Enterococcus faecalis, Lactobacillus gasseri/plantarum) was taken. Additionally, the number of bacteria grown on solid media was taken into account. The results of the tests confirm the specific, concentration-dependent selectiveness, and the high antibacterial effectiveness of totarol against the pathogenic microorganisms: Gardnerella vaginalis, Streptococcus agalactiae, Enterococcus faecalis at low MIC values safe for bacteria of the Lactobacillus genus.

Q: Which results are given for `CC(C)c1c(O)ccc2c1CC[C@H]1C(C)(C)CCC[C@]21C` [Totarol, totarol]?
A: MIC value (L. plantarum): 0.08%; viable count by quantitative culture (cfu/ml) (totarol 0.0002%, 0 h): 3.9 × 10^5 cfu/ml; OD, average of 3 measurements (totarol 0.0002%, 0 h): 0.291; viable count by quantitative culture (cfu/ml) (totarol 0.0002%, 8 h): 3.5 × 10^5 cfu/ml; OD, average of 3 measurements (totarol 0.0002%, 8 h): 0.305; viable count by quantitative culture (cfu/ml) (totarol 0.0002%, 16 h): 4.2 × 10^6 cfu/ml; OD, average of 3 measurements (totarol 0.0002%, 16 h): 0.854; viable count by quantitative culture (cfu/ml) (totarol 0.0002%, 24 h): 2.9 × 10^7 cfu/ml; OD (totarol 0.0002%, 24 h): 1.469; viable count by quantitative culture (cfu/ml) (totarol 0.0004%, 0 h): 2.1 × 10^5 cfu/ml; OD, average of 3 measurements (totarol 0.0004%, 0 h): 0.304; viable count by quantitative culture (cfu/ml) (totarol 0.0004%, 8 h): 2 × 10^5 cfu/ml; OD, average of 3 measurements (totarol 0.0004%, 8 h): 0.309; viable count by quantitative culture (cfu/ml) (totarol 0.0004%, 16 h): 3.9 × 10^6 cfu/ml; OD, average of 3 measurements (totarol 0.0004%, 16 h): 0.892; viable count by quantitative culture (cfu/ml) (totarol 0.0004%, 24 h): 3.1 × 10^7 cfu/ml; OD (totarol 0.0004%, 24 h): 1.508; viable count by quantitative culture (cfu/ml) (totarol 0.0007%, 0 h): 6.5 × 10^5 cfu/ml; OD, average of 3 measurements (totarol 0.0007%, 0 h): 0.292; viable count by quantitative culture (cfu/ml) (totarol 0.0007%, 8 h): 4.5 × 10^5 cfu/ml; OD, average of 3 measurements (totarol 0.0007%, 8 h): 0.300; viable count by quantitative culture (cfu/ml) (totarol 0.0007%, 16 h): 8.1 × 10^6 cfu/ml; OD, average of 3 measurements (totarol 0.0007%, 16 h): 0.902; viable count by quantitative culture (cfu/ml) (totarol 0.0007%, 24 h): 5.1 × 10^7 cfu/ml; OD (totarol 0.0007%, 24 h): 1.504; viable count by quantitative culture (cfu/ml) (totarol 0.0013%, 0 h): 3.8 × 10^5 cfu/ml; OD, average of 3 measurements (totarol 0.0013%, 0 h): 0.293; viable count by quantitative culture (cfu/ml) (totarol 0.0013%, 8 h): 3.2 × 10^5 cfu/ml; OD, average of 3 measurements (totarol 0.0013%, 8 h): 0.305; viable count by quantitative culture (cfu/ml) (totarol 0.0013%, 16 h): 5.1 × 10^6 cfu/ml; OD, average of 3 measurements (totarol 0.0013%, 16 h): 0.913; viable count by quantitative culture (cfu/ml) (totarol 0.0013%, 24 h): 4.1 × 10^7 cfu/ml; OD (totarol 0.0013%, 24 h): 1.521; viable count by quantitative culture (cfu/ml) (totarol 0.0025%, 0 h): 2.8 × 10^5 cfu/ml; OD, average of 3 measurements (totarol 0.0025%, 0 h): 0.284; viable count by quantitative culture (cfu/ml) (totarol 0.0025%, 8 h): 1.0 × 10^5 cfu/ml; OD, average of 3 measurements (totarol 0.0025%, 8 h): 0.303; viable count by quantitative culture (cfu/ml) (totarol 0.0025%, 16 h): 8.4 × 10^6 cfu/ml; OD, average of 3 measurements (totarol 0.0025%, 16 h): 0.914; viable count by quantitative culture (cfu/ml) (totarol 0.0025%, 24 h): 1.4 × 10^7 cfu/ml; OD (totarol 0.0025%, 24 h): 1.552; viable count by quantitative culture (cfu/ml) (totarol 0.005%, 0 h): 4.2 × 10^5 cfu/ml; OD, average of 3 measurements (totarol 0.005%, 0 h): 0.288; viable count by quantitative culture (cfu/ml) (totarol 0.005%, 8 h): 1.2 × 10^5 cfu/ml; OD, average of 3 measurements (totarol 0.005%, 8 h): 0.300; viable count by quantitative culture (cfu/ml) (totarol 0.005%, 16 h): 1.8 × 10^6 cfu/ml; OD, average of 3 measurements (totarol 0.005%, 16 h): 0.895; viable count by quantitative culture (cfu/ml) (totarol 0.005%, 24 h): 3.8 × 10^7 cfu/ml; OD (totarol 0.005%, 24 h): 1.476; viable count by quantitative culture (cfu/ml) (totarol 0.01%, 0 h): 5.5 × 10^5 cfu/ml; OD, average of 3 measurements (totarol 0.01%, 0 h): 0.295; viable count by quantitative culture (cfu/ml) (totarol 0.01%, 8 h): 5 × 10^5 cfu/ml; OD, average of 3 measurements (totarol 0.01%, 8 h): 0.298; viable count by quantitative culture (cfu/ml) (totarol 0.01%, 16 h): 6.4 × 10^6 cfu/ml; OD, average of 3 measurements (totarol 0.01%, 16 h): 0.871; viable count by quantitative culture (cfu/ml) (totarol 0.01%, 24 h): 3.4 × 10^7 cfu/ml; OD (totarol 0.01%, 24 h): 1.445; viable count by quantitative culture (cfu/ml) (totarol 0.02%, 0 h): 7.5 × 10^5 cfu/ml; OD, average of 3 measurements (totarol 0.02%, 0 h): 0.330; viable count by quantitative culture (cfu/ml) (totarol 0.02%, 8 h): 1.0 × 10^5 cfu/ml; OD, average of 3 measurements (totarol 0.02%, 8 h): 0.299; viable count by quantitative culture (cfu/ml) (totarol 0.02%, 16 h): 5.1 × 10^6 cfu/ml; OD, average of 3 measurements (totarol 0.02%, 16 h): 0.837; viable count by quantitative culture (cfu/ml) (totarol 0.02%, 24 h): 3.1 × 10^7 cfu/ml; OD (totarol 0.02%, 24 h): 1.375; viable count by quantitative culture (cfu/ml) (totarol 0.04%, 0 h): 2.6 × 10^5 cfu/ml; OD, average of 3 measurements (totarol 0.04%, 0 h): 0.398; viable count by quantitative culture (cfu/ml) (totarol 0.04%, 8 h): 1.6 × 10^5 cfu/ml; OD, average of 3 measurements (totarol 0.04%, 8 h): 0.370; viable count by quantitative culture (cfu/ml) (totarol 0.04%, 16 h): 2.4 × 10^5 cfu/ml; OD, average of 3 measurements (totarol 0.04%, 16 h): 0.379; viable count by quantitative culture (cfu/ml) (totarol 0.04%, 24 h): 2.4 × 10^5 cfu/ml; OD (totarol 0.04%, 24 h): 0.397; viable count by quantitative culture (cfu/ml) (totarol 0.08%, 0 h): 3.2 × 10^5 cfu/ml; OD, average of 3 measurements (totarol 0.08%, 0 h): 0.401; viable count by quantitative culture (cfu/ml) (totarol 0.08%, 8 h): 1.2 × 10^4 cfu/ml; OD, average of 3 measurements (totarol 0.08%, 8 h): 0.413; viable count by quantitative culture (cfu/ml) (totarol 0.08%, 16 h): 3.5 × 10^4 cfu/ml; OD, average of 3 measurements (totarol 0.08%, 16 h): 0.368; viable count by quantitative culture (cfu/ml) (totarol 0.08%, 24 h): 5 × 10^4 cfu/ml; OD (totarol 0.08%, 24 h): 0.357; viable count by quantitative culture (cfu/ml) (totarol 0.16%, 0 h): 3.7 × 10^5 cfu/ml; OD, average of 3 measurements (totarol 0.16%, 0 h): 0.472; viable count by quantitative culture (cfu/ml) (totarol 0.16%, 8 h): 4 × 10^4 cfu/ml; OD, average of 3 measurements (totarol 0.16%, 8 h): 0.320; viable count by quantitative culture (cfu/ml) (totarol 0.16%, 16 h): 7.1 × 10^4 cfu/ml; OD, average of 3 measurements (totarol 0.16%, 16 h): 0.346; viable count by quantitative culture (cfu/ml) (totarol 0.16%, 24 h): 4.1 × 10^4 cfu/ml; OD (totarol 0.16%, 24 h): 0.371
